Source: patent publication US9480754B2, “Phospholipid ether analogs as cancer-targeting drug vehicles” (Cellectar Biosciences, Inc., priority 2014, dated 2016)

How the values were obtained:
Glioblastoma 22 GSC = test: 124I-CLR1404 tumor uptake, model 33; assay type: in vivo; settings: NOD-SCID mouse (orthotopic), Glioma
Description: (§1) All described animal studies were performed according to animal protocols approved by the Institutional Animal Care and Use Committee. Female athymic nude mice (Hsd:Athymic Nude-Foxnlnu or Crl:NU-Foxnlnu, Charles River Laboratories) about 4 to 5 weeks of age, 16 to 18 g (n=6), were used for human tumor xenograft studies. Mice were anesthetized with isoflurane and injected subcutaneously with viable tumor cells in 100 μl of Dulbecco's PBS (or, for glioma cells, […] of PBS) into the right flank. Inoculum sizes were 1×10^6 (for renal, ovarian, glioma, pancreatic, prostate, and NSCLC models), […] (for colorectal and uterine models), or 3×10^6 (breast).
(§2) Radioiodinated ^124I-CLR1404 was tested in subcutaneous and orthotopic xenografts of 60 different spontaneous, transgenic, human, and rodent malignant cell lines and tumor types. […] Representative examples are of both human (FIG. 5A-5I) and rodent (FIG. 5J-M) tumors.

[1] = test system: xenograft, orthotopic and transgenic cancer and cancer stem cell derived animal models; test: CLR1404 tumor selectivity across 60 tumor models; assay type: in vivo, rodent; settings: 60 different malignant cell lines and tumor types
Description: as §1, §2

Neuroblastoma Lan5 = test: 124I-CLR1404 tumor uptake, model 17; assay type: in vivo; settings: Nude mouse
Description: as §1, §2

Adrenal H-295 = test: 124I-CLR1404 tumor uptake, model 4; assay type: in vivo; settings: SCID mouse, Adenocarcinoma
Description: as §1, §2

Hepatocellular carcinoma = test: 124I-CLR1404 tumor uptake, model 46; assay type: in vivo; settings: Endogenous mouse, Adenocarcinoma
Description: as §1, §2

Cervical-HPV = test: 124I-CLR1404 tumor uptake, model 54; assay type: in vivo; settings: Endogenous mouse, Adenocarcinoma
Description: as §1, §2

Pancreatic c-myc = test: 124I-CLR1404 tumor uptake, model 52; assay type: in vivo; settings: Endogenous mouse, Adenocarcinoma
Description: as §1, §2

Melanoma A-375 = test: 124I-CLR1404 tumor uptake, model 12; assay type: in vivo; settings: Nude mouse
Description: as §1, §2

Pancreatic Mia Paca-2 = test: 124I-CLR1404 tumor uptake, model 21; assay type: in vivo; settings: Nude mouse, Carcinoma
Description: as §1, §2

Walker256 = test: 124I-CLR1404 tumor uptake, model 38; assay type: in vivo; settings: Rat, Carcinosarcoma
Description: as §1, §2

Ovarian HTB-77 = test: 124I-CLR1404 tumor uptake, model 18; assay type: in vivo; settings: Nude mouse, Adenocarcinoma
Description: as §1, §2

Intestinal polyp = test: 124I-CLR1404 tumor uptake, model 56; assay type: in vivo; settings: Endogenous mouse, Adenoma (benign)
Description: as §1, §2

Colon HT-29 = test: 124I-CLR1404 tumor uptake, model 9; assay type: in vivo; settings: SCID mouse, Adenocarcinoma
Description: as §1, §2

Hepatoma Hep-G2 = test: 124I-CLR1404 tumor uptake, model 59; assay type: in vivo; settings: Nude mouse, Carcinoma
Description: as §1, §2

Renal cell ACHN = test: 124I-CLR1404 tumor uptake, model 24; assay type: in vivo; settings: Nude mouse (orthotopic), Adenocarcinoma
Description: as §1, §2

Colon DLD1 = test: 124I-CLR1404 tumor uptake, model 8; assay type: in vivo; settings: SCID mouse, Adenocarcinoma
Description: as §1, §2

Lung NCI H-69 (Oat Cell) = test: 124I-CLR1404 tumor uptake, model 3; assay type: in vivo; settings: SCID mouse, Small cell carcinoma
Description: as §1, §2

Prostate LNCap = test: 124I-CLR1404 tumor uptake, model 28; assay type: in vivo; settings: Mouse, Adenocarcinoma
Description: as §1, §2

Pirc rat colon adenoma = test: 124I-CLR1404 tumor uptake, model 60; assay type: in vivo
Description: as §1, §2

Neuroblastoma SK-N-AS = test: 124I-CLR1404 tumor uptake, model 14; assay type: in vivo; settings: Nude mouse
Description: as §1, §2

[2] = test system: Mammary alveolar hyperplasia; test: 124I-CLR1404 tumor uptake, model 57; assay type: in vivo; settings: Endogenous mouse, Hyperplasia (benign)
Description: as §1, §2

Mammary AC = test: 124I-CLR1404 tumor uptake, model 45; assay type: in vivo; settings: ApcMin/+ mouse, Adenocarcinoma
Description: as §1, §2

Mammary SCC = test: 124I-CLR1404 tumor uptake, model 44; assay type: in vivo; settings: ApcMin/+ mouse, Squamous cell carcinoma
Description: as §1, §2

Prostate MatLyLu = test: 124I-CLR1404 tumor uptake, model 37; assay type: in vivo; settings: Rat, Adenocarcinoma
Description: as §1, §2

Esophageal = test: 124I-CLR1404 tumor uptake, model 55; assay type: in vivo; settings: Endogenous Mouse, Adenocarcinoma
Description: as §1, §2

Hepatoma Hep-3B = test: 124I-CLR1404 tumor uptake, model 58; assay type: in vivo; settings: Nude mouse, Carcinoma
Description: as §1, §2

Colon LS-180 = test: 124I-CLR1404 tumor uptake, model 10; assay type: in vivo; settings: Nude mouse, Adenocarcinoma
Description: as §1, §2

Neuroblastoma NB1691 = test: 124I-CLR1404 tumor uptake, model 15; assay type: in vivo; settings: Nude mouse
Description: as §1, §2

Colon LS180 = test: 124I-CLR1404 tumor uptake, model 7; assay type: in vivo; settings: SCID mouse, Adenocarcinoma
Description: as §1, §2

Glioma C6 = test: 124I-CLR1404 tumor uptake, model 48; assay type: in vivo; settings: Rat xenograft
Description: as §1, §2

Prostate PC-3 = test: 124I-CLR1404 tumor uptake, model 1; assay type: in vivo; settings: SCID mouse, Adenocarcinoma
Description: as §1, §2

Glioma L9 = test: 124I-CLR1404 tumor uptake, model 47; assay type: in vivo; settings: Rat xenograft
Description: as §1, §2

Pancreatic Kras = test: 124I-CLR1404 tumor uptake, model 53; assay type: in vivo; settings: Endogenous mouse, Adenocarcinoma
Description: as §1, §2

Sarcoma (Meth-A) = test: 124I-CLR1404 tumor uptake, model 25; assay type: in vivo; settings: Nude mouse, Fibrosarcoma
Description: as §1, §2

Adrenal RL-251 = test: 124I-CLR1404 tumor uptake, model 5; assay type: in vivo; settings: SCID mouse, Adenocarcinoma
Description: as §1, §2

Head and neck SCC6 = test: 124I-CLR1404 tumor uptake, model 27; assay type: in vivo; settings: Nude mouse, Squamous cell carcinoma
Description: as §1, §2

Bladder SV40 = test: 124I-CLR1404 tumor uptake, model 36; assay type: in vivo; settings: Mouse (orthotopic), Adenocarcinoma
Description: as §1, §2

Breast MCF-7 = test: 124I-CLR1404 tumor uptake, model 30; assay type: in vivo; settings: Rat, Adenocarcinoma
Description: as §1, §2

Pancreatic BXPC3 = test: 124I-CLR1404 tumor uptake, model 20; assay type: in vivo; settings: Nude mouse, Adenocarcinoma
Description: as §1, §2

Head and neck SCC1 = test: 124I-CLR1404 tumor uptake, model 26; assay type: in vivo; settings: Nude mouse, Squamous cell carcinoma
Description: as §1, §2

Min mouse intestinal = test: 124I-CLR1404 tumor uptake, model 42; assay type: in vivo; settings: Endogenous mouse, Adenocarcinoma
Description: as §1, §2

TRAMP prostate = test: 124I-CLR1404 tumor uptake, model 39; assay type: in vivo; settings: Endogenous mouse, Adenocarcinoma
Description: as §1, §2

Glioblastoma U87 = test: 124I-CLR1404 tumor uptake, model 11; assay type: in vivo; settings: Nude mouse and NOD-SCID, Glioma
Description: as §1, §2

Ovarian Ovcar-3 = test: 124I-CLR1404 tumor uptake, model 19; assay type: in vivo; settings: Nude mouse, Adenocarcinoma
Description: as §1, §2

Breast 4T1 = test: 124I-CLR1404 tumor uptake, model 35; assay type: in vivo; settings: Endogenous mouse (orthotopic), Adenocarcinoma
Description: as §1, §2

C[N+](C)(C)CCOP(=O)([O-])OCCCCCCCCCCCCCCCCCCc1ccc(I)cc1 [^124I-CLR1404]
Uptake (Glioblastoma 22 GSC): Yes (Tumor uptake was considered positive if tumor to muscle ratio was greater than 3.) | tumor localization after intravenous administration [1]: localized in almost all primary and metastatic malignant tumors | Uptake (Neuroblastoma Lan5): Yes (Tumor uptake was considered positive if tumor to muscle ratio was greater than 3.) | Uptake (Adrenal H-295): Yes (Tumor uptake was considered positive if tumor to muscle ratio was greater than 3.) | Uptake (Hepatocellular carcinoma): Yes (Tumor uptake was considered positive if tumor to muscle ratio was greater than 3.) | Uptake (Cervical-HPV): Yes (Tumor uptake was considered positive if tumor to muscle ratio was greater than 3.) | Uptake (Pancreatic c-myc): Yes (Tumor uptake was considered positive if tumor to muscle ratio was greater than 3.) | Uptake (Melanoma A-375): Yes (Tumor uptake was considered positive if tumor to muscle ratio was greater than 3.) | Uptake (Pancreatic Mia Paca-2): Yes (Tumor uptake was considered positive if tumor to muscle ratio was greater than 3.) | Uptake (Walker256): Yes (Tumor uptake was considered positive if tumor to muscle ratio was greater than 3.) | Uptake (Ovarian HTB-77): Yes (Tumor uptake was considered positive if tumor to muscle ratio was greater than 3.) | Uptake (Intestinal polyp): No (Tumor:muscle ratio less than or equal to 2 was considered negative.) | Uptake (Colon HT-29): Yes (Tumor uptake was considered positive if tumor to muscle ratio was greater than 3.) | Uptake (Hepatoma Hep-G2): No (Tumor:muscle ratio less than or equal to 2 was considered negative.) | Uptake (Renal cell ACHN): Yes (Tumor uptake was considered positive if tumor to muscle ratio was greater than 3.) | Uptake (Colon DLD1): Yes (Tumor uptake was considered positive if tumor to muscle ratio was greater than 3.) | Uptake (Lung NCI H-69 (Oat Cell)): Yes (Tumor uptake was considered positive if tumor to muscle ratio was greater than 3.) | Uptake (Prostate LNCap): Yes (Tumor uptake was considered positive if tumor to muscle ratio was greater than 3.) | Uptake (Pirc rat colon adenoma): No (Tumor:muscle ratio less than or equal to 2 was considered negative.) | Uptake (Neuroblastoma SK-N-AS): Yes (Tumor uptake was considered positive if tumor to muscle ratio was greater than 3.) | Uptake [2]: No (Tumor:muscle ratio less than or equal to 2 was considered negative.) | Uptake (Mammary AC): Yes (Tumor uptake was considered positive if tumor to muscle ratio was greater than 3.) | Uptake (Mammary SCC): Yes (Tumor uptake was considered positive if tumor to muscle ratio was greater than 3.) | Uptake (Prostate MatLyLu): Yes (Tumor uptake was considered positive if tumor to muscle ratio was greater than 3.) | Uptake (Esophageal): Yes (Tumor uptake was considered positive if tumor to muscle ratio was greater than 3.) | Uptake (Hepatoma Hep-3B): No (Tumor:muscle ratio less than or equal to 2 was considered negative.) | Uptake (Colon LS-180): Yes (Tumor uptake was considered positive if tumor to muscle ratio was greater than 3.) | Uptake (Neuroblastoma NB1691): Yes (Tumor uptake was considered positive if tumor to muscle ratio was greater than 3.) | Uptake (Colon LS180): Yes (Tumor uptake was considered positive if tumor to muscle ratio was greater than 3.) | Uptake (Glioma C6): Yes (Tumor uptake was considered positive if tumor to muscle ratio was greater than 3.) | Uptake (Prostate PC-3): Yes (Tumor uptake was considered positive if tumor to muscle ratio was greater than 3.) | Uptake (Glioma L9): Yes (Tumor uptake was considered positive if tumor to muscle ratio was greater than 3.) | Uptake (Pancreatic Kras): Yes (Tumor uptake was considered positive if tumor to muscle ratio was greater than 3.) | Uptake (Sarcoma (Meth-A)): Yes (Tumor uptake was considered positive if tumor to muscle ratio was greater than 3.) | Uptake (Adrenal RL-251): Yes (Tumor uptake was considered positive if tumor to muscle ratio was greater than 3.) | Uptake (Head and neck SCC6): Yes (Tumor uptake was considered positive if tumor to muscle ratio was greater than 3.) | Uptake (Bladder SV40): Yes (Tumor uptake was considered positive if tumor to muscle ratio was greater than 3.) | Uptake (Breast MCF-7): Yes (Tumor uptake was considered positive if tumor to muscle ratio was greater than 3.) | Uptake (Pancreatic BXPC3): Yes (Tumor uptake was considered positive if tumor to muscle ratio was greater than 3.) | Uptake (Head and neck SCC1): Yes (Tumor uptake was considered positive if tumor to muscle ratio was greater than 3.) | Uptake (Min mouse intestinal): Yes (Tumor uptake was considered positive if tumor to muscle ratio was greater than 3.) | Uptake (TRAMP prostate): Yes (Tumor uptake was considered positive if tumor to muscle ratio was greater than 3.) | Uptake (Glioblastoma U87): Yes (Tumor uptake was considered positive if tumor to muscle ratio was greater than 3.) | Uptake (Ovarian Ovcar-3): Yes (Tumor uptake was considered positive if tumor to muscle ratio was greater than 3.) | Uptake (Breast 4T1): Yes (Tumor uptake was considered positive if tumor to muscle ratio was greater than 3.)
